Laboratory results published in paper PMC6333900, “Discovery of peptide ligands targeting a specific ubiquitin-like domain–binding site in the deubiquitinase USP11” (The Journal of Biological Chemistry, 2018).
*: point of attachment. 5TAMRA = CN(C)c1ccc2c(c1)Oc1cc(N(C)C)ccc1C21OC(=O)c2cc(C(=O)*)ccc21

What was measured:
U87 cells = experiment: Cell viability (Presto Blue assay), U87; format: cell-based, human; settings: 24 h, n = 3
Method: (§1) Cells were plated in 96-well plates (2.5 × 10^4 cells/well) and treated with GET-FYLIR (0–50 μM) for 24 h. Cells were also treated with GET-Scrambled as a control. After treatment, cells were washed with PBS and then incubated for 15 min at 37 °C with a 100-μl Presto Blue solution (10% Presto Blue, Invitrogen in Hanks' balanced salt solution, Sigma). Change in the fluorescence was measured using a plate reader with the excitation/emission wavelengths set at 560/590 nm (Infinite® 200 PRO, TECAN), with untreated cells used as a control. All data sets were combined for the statistical analysis. A Sidak's multiple comparisons test was applied. N refers to the number of biological replicates.

NIH3T3 cells [1] = experiment: Cell viability (Presto Blue assay), NIH3T3; format: cell-based; settings: for cell viability: 24 h, Presto Blue, n = 3
Method: as §1

Panc1 cells [2] = experiment: Cell cycle analysis (propidium iodide, flow cytometry), Panc1; format: cell-based, human; settings: Panc1, 20 μM, 24 h, p < 0.0001, n = 7
Method: (§2) Cells were plated in 24-well plates (1 × 10^5 cells/well) and treated with GET-FYLIR (20 μM) for 24 h. The cells were treated with trypsin, detached from the plate, and centrifuged at 200 × g for 5 min. The supernatant was aspirated, and the cells were resuspended in PBS. The cells were fixed in 70% ethanol for 1 h at 4 °C. The cells were washed with PBS and incubated in propidium iodide staining solution (0.1% (v/v) Triton X-100, 10 μg/ml propidium iodide (Sigma), and 100 μg/ml DNase-free RNase A in PBS) for 30 min at room temperature. Cells were analyzed using an FC500 flow cytometer (Beckman Coulter) equipped with a 488-nm laser, and data from at least 10,000 cells were acquired for each sample. Cells were gated based on forward and side scatter, and doublets excluded by height/area analysis. Cell cycle percentages were calculated by curved fit using Weasel Version 3.0 (Walter and Eliza Hall Institute of Medical Research). Data shown are representative. All data sets were combined for the statistical analysis. A Sidak's multiple comparisons test was applied. N refers to the number of biological replicates. All curves and statistical analyses were produced using Prism 7 (GraphPad Software).

Panc1 cells [3] = experiment: Cell uptake (flow cytometry), Panc1; format: cell-based, human; settings: 1 h and 24 h, compared with NIH3T3, flow cytometry
Method: (§3) Cells treated with GET-FYLIR or GET-Scrambled were analyzed on an Astrios cell sorter using a 488-nm […] laser (40,000 cells; gated on live cells by forward/side scatter). Gmean was used as the average cell intensity. All data sets were combined for the statistical analysis. A Sidak's multiple comparisons test was applied. N refers to the number of biological replicates.

Panc1 cells [4] = experiment: Cell viability (Presto Blue assay), Panc1; format: cell-based, human
Method: as §1

[5] = system: BJ6 human dermal fibroblasts; experiment: Cell viability (Presto Blue assay), BJ6; format: cell-based; settings: 24 h; for cell viability: n = 3
Method: as §1

[6] = system: KNS-42, U87, HeLa, MCF7, Panc1, NIH3T3 and BJ6 cell lines; experiment: Cellular delivery by GET system; format: cell-based; settings: TAMRA-tagged peptide
Excerpt: We next evaluated the effect of the FYLIR peptide ligand on cells in culture. The novel GET system, developed for highly efficient nucleic acid, protein and peptide delivery ([35]), was used to deliver the FYLIR peptide. GET is based on the use of cell-penetrating peptides modified with heparin-binding sequences, which enhance cellular uptake by endocytosis. The synthetic peptide, GET-FYLIR, designed for these studies harbored an N-terminal TAMRA fluorescent tag, for easy visualization, fused to the GET (P21 and 8 Arg ([35])) and FYLIR sequences. […] Having established efficient delivery, the peptide's effect was investigated by assessing cell viability.

NIH3T3 cells [7] = experiment: Cell uptake (flow cytometry), NIH3T3; format: cell-based; settings: compared with Panc1, flow cytometry
Method: as §3

NIH3T3 cells [8] = experiment: Cell cycle analysis (propidium iodide, flow cytometry), NIH3T3; format: cell-based; settings: NIH3T3, 20 μM, 24 h, n = 5
Method: as §2

HeLa cells = experiment: Confocal microscopy, intracellular localization; format: cell-based, human; settings: 10 μM, 24 h, confocal imaging
Method: HeLa cells were plated onto 10-mm diameter glass coverslips (1 × 10^5 cells/coverslip). Cells treated with GET-FYLIR were fixed for 10 min in 3.7% (w/v) paraformaldehyde (Sigma), stained with 1 μg/ml Hoechst 33342 (Molecular Probes) for a further 10 min, washed, and mounted. Cells were imaged using an LSM880C confocal microscope (Zeiss, Germany). A ×63 objective lens was used with a […] laser used for Hoechst 33342 and a 561-nm DPSS laser for GET-FYLIR–transduced cells. Images were captured and processed using ZEN software (Zeiss, Germany).

Panc1 cells [9] = settings: cited from earlier work
Excerpt: (§4) Several reports link USP11 to cell cycle progression and proliferation, although the detailed mechanisms are only partially understood. For example, (i) cell growth assays in MCF-7 and MDA-MB-231 cells show an increase in cell numbers upon USP11 overexpression, whereas USP11 knockdown leads to growth inhibition ([48]); (ii) USP11 itself is under cell cycle control and turns over rapidly in G1 cells, especially upon DNA damage induction, whereas expression of USP11 in S phase is high and insensitive to DNA damage ([12]). Knockdown of USP11 results in the activation of DNA damage-response pathwa ...

USP11 = settings: cited from earlier work
Excerpt: as §4

For “5TAMRA-KRKKKGKGLGKKRDPCLRKYKRRRRRRRRAEGEFYKLKIRTPR-NH2 [GET-FYLIR]”, the cell viability (U87 cells; U87, 10 μM) was “retained”, the cell viability (U87 cells; U87, 20 μM) was “minimal effect” and the cell viability effects (NIH3T3 cells [1]; NIH3T3, 5 μM, uptake experiment, 1 and 24 h) was “cell viability effects in Panc1 but not NIH3T3 cells were observed”. The cell viability (NIH3T3 cells [1]; NIH3T3, 10 μM) was “retained”, the cell viability (NIH3T3 cells [1]; NIH3T3, 20 μM) was “minimal effect” and the “subG0 fraction” value (Panc1 cells [2]; from 0.9% untreated) was 8%. The “fraction of cells in S phase” value (Panc1 cells [2]; from 36.9% untreated) was 52.8%, the “fold increase of subG0 fraction” value (Panc1 cells [2]; versus untreated) was roughly 9 fold and the cell uptake (Panc1 cells [3]; Panc1, 1 μM) was “little difference in cell uptake in either cell type”. For the same compound, the cell uptake (Panc1 cells [3]; Panc1, 5 μM) was “increased uptake in Panc1 cells for both 1- and 24-h incubations”, the cell viability effects (Panc1 cells [4]; Panc1, 5 μM, uptake experiment, 1 and 24 h) was “cell viability effects in Panc1 but not NIH3T3 cells were observed” and the loss of viability (Panc1 cells [4]; Panc1, 10 μM, 24 h, Presto Blue, n = 3 biological repeats) was roughly 50%. For the same compound, the “sensitivity to dose (viability)” value (Panc1 cells [4]; Panc1, up to 50 μM, 24 h, Presto Blue) was “particularly sensitive”, the cell viability ([5]; BJ6, 10 μM) was “retained” and the cell viability ([5]; BJ6, 20 μM) was “minimal effect”. For the same compound, the “sensitivity to dose (viability)” value ([5]; BJ6, up to 50 μM) was “relatively insensitive”, the cellular delivery [6] was “efficiently delivered to all cell lines tested” and the cell uptake (NIH3T3 cells [7]; NIH3T3, 1 μM, 1 h and 24 h) was “little difference in cell uptake in either cell type”. The cell uptake (NIH3T3 cells [7]; NIH3T3, 5 μM, both incubation times) was “significantly lower than Panc1 cells”, the “subG0 fraction” value (NIH3T3 cells [8]; from 0.2% untreated, not significant, p = 0.9992) was 0.8% and the “fraction of cells in S phase” value (NIH3T3 cells [8]; from 24.8% untreated, p < 0.0001) was 37.5%. For the same compound, the endosomal escape (HeLa cells) was “efficiently escapes endosomal vesicles” and the subcellular localization (HeLa cells) was “both the cell cytoplasm and the nucleus, with the highest accumulation in nucleoli”.
In the case of `O=C1c2c(O)ccc(O)c2C(=O)c2c(NCCNCCO)ccc(NCCNCCO)c21` [mitoxantrone], the cell death (Panc1 cells [9]) is given as “dose-dependent cell death” and the USP11 inhibition (USP11) is given as “inhibits USP11”.
